Laboratory results taken from publication PMC7481839, “Switchable foldamer ion channels with antibacterial activity” (Chemical Science, 2020).
Where two headings read alike, the source gives them in different places.

Tests used:
[1] = Lucigenin assay of Cl− transport in vesicles; type: biochemical; conditions: 100 µM compound, interior NaNO3 200 mM, exterior NaCl (2 M), 25°C, first-order curve fit
Method: To confirm that chloride could pass through the bilayers, lucigenin assays[5a] were performed for 2, Cu(II)[1]Cl2 and Cu(II)[2]Cl2 (Fig. 5 and ESI, Fig. S10 ^†). The same lipids were used as for the HPTS assays and lucigenin was encapsulated with NaNO3 in the vesicles.
Figure S9: Ionophoric activity determined through an HPTS assay in the presence of NaCl (100 mM) for: 2 (10 µM) in the absence (pink inverted triangles) and presence of FCCP (20 µM, blue triangles) and Cu(II)[2]Cl2 (6 µM) in the absence (red circles) and presence of FCCP (20 µM, black squares). Base pulse at 1 min, TX-100 added at 7 min.
5.4 Preparation of large unilamellar vesicles for lucigenin assays […]
Lucigenin assays procedure and fluorescence normalisation were developed by a modification of published methods.10 An aliquot of the vesicle stock solution (100 μL) w as diluted to 1.9 mL with 200 mM NaNO 3 in water (pH = 7.4) (final lipid co ncentration in cuvette 0.762 mM). […] The cuvette was then placed into a Varian Cary Eclipse fluorescence spectrophotometer in the moderate stirring mode. The fluorescence emission at 505 nm was observed, resulting from excitation at 455 nm, over a period of seven minutes (420 seconds) at 25°C. […] The change in fluorescence was followed for six minutes before final lysis of the vesicles at seven minutes (420 s) by adding an aliquot of a 10 % v/v solution of Triton X-100 […]

human erythrocytes [2] = conditions: in phosphate buffer after 1 h incubation; read-out: reported EC50 for haemolysis; cited from earlier work
Source text: Although alamethicin is a very active channel former, its use in the clinic is hampered by its high haemolytic activity.[52]

human erythrocytes [3] = test: Haemolysis assay; type: cell-based; conditions: fresh blood diluted with PBS (1:2), compound in DMSO, 37 °C for 30 min, triplicates, read-out: EC50 for haemolysis (haemoglobin release)
[4] = cited from earlier work
Source text: Application of Hille's equation[47] to estimate the inner channel diameters for both Cu(II)[2]Cl2 and Cu(II)[2]Cl·HCO3 provided approximate pore diameters of 1.5 nm, 2.1 nm and 2.3 nm for the different conductance levels (see the ESI ^†). […] Planar bilayer conductance (PBC) studies Alamethicin provides a useful comparison to the data reported in the manuscript and in the ESI.

[5] = tested on: B. megaterium strain DSM319; test: Antimicrobial assay: minimum inhibitory concentration (MIC); type: cell-based; conditions: B. megaterium strain DSM319, LB broth, about 3 × 10^6 CFU/mL, 30 °C overnight, OD 600 nm, compound in DMSO, three biological repeats with three technical repeats
Method: The antibiotic activities of 1, 2, Cu(II)[1]Cl2 and Cu(II)[2]Cl2 were measured against B. megaterium strain DSM319 (see the ESI ^†).
Metal ion chelating Aib foldamers 1 and 2 bear a novel amino-terminal copper and nickel (ATCUN) binding motif; other ATCUN motifs are reported to increase antibiotic properties by generating reactive oxygen species upon metal binding.24 Furthermore many copper-containing metallodrugs have been stu died for their anticancer25 and antibiotic properties.26 Introducing the Cu(II)(BPTA) group onto the Aib octamer unit […]
antibiotic studies of long Aib n oligomers (n ≥ 10).15
7.1 Antimicrobial assays: minimum inhibitory concentrations (MIC)
The used procedure was developed by modification of published methods.27 The antimicrobial activity of the appropriate compound was tested against B. megaterium strain DSM319. Bacteria were grown over night at 30 °C in standard lysogeny broth (LB) broth from a single colony overnight. An aliquot from this suspension was taken and diluted (1:100) in fresh LB broth until the suspension reached the mid - logarithmic phase (OD600 = 0.4). […]
The plates were shaken for about 30 seconds and the optical density (OD) was measured at 600 nm.
Afterwards the plates were incubated at 30 °C under aerobic conditions with shaking overnight. The absorbance was then measured at 600 nm using a ClarioStar plate reader. […]

alamethicin
kobs of Cl− transport (lucigenin assay) [1]: 0.0073 s⁻¹ | EC50 (human erythrocytes [2]): 1450 nM | EC50 (human erythrocytes [3]): 1400 nM | proposed pore diameter, hexameric pores [4]: 1.1 nm | proposed pore diameter, octameric pores [4]: 1.8 nm | MIC, minimum inhibitory concentration [5]: 6 ± 2 µM
